Results on 2 molecules are retold here after patent publication US10865222B2, “Neisseria gonorrhoeae therapeutic based on CMP-nonulosonate sugars” (priority 2014, dated 2020).

For assay [1], the target named is T1, gonococcal LOS sialyltransferase (Lst) (Neisseria gonorrhoeae, UniProt P72074).
T1 construct: served as substrates for gonococcal Lst in the context of live bacteria; endogenous in cells; host or cells: N. gonorrhoeae F62 ΔlgtD (live bacteria)
Format: cell-based, N. gonorrhoeae. Conditions: CMP salt 30 μM (20 μg/ml), 2 h at 37° C. As for the experimental part:
FIG. 1. Substrate specificity of gonococcal LOS sialyltransferase (Lst) N. gonorrhoeae strain F62 ΔIgtD was grown in standard gonococcal liquid media alone (‘No sialic acid’) or in media supplemented with CMP salts of the indicated sialic acid or nonulosonic acid, each at a concentration of 20 μg/ml (˜30 μM), for 2 h at 37° C. Bacteria were washed, pellets treated with protease K, lysed in 4×LDS buffer and lysates were separated on 12% Bis-Tris gels using MES running buffer. LOS was transferred to a PVDF membrane and probed with mAb 3F11 that recognizes the lacto-N-neotetraose only in the non-sialylated state; the addition of a sialic acid or nonulosonate residue abrogates mAb 3F11 binding (upper panel). LOS was also visualized by silver staining (middle panel). Sialylation or nonulosonate (NulO) modification was also quantified using whole cell ELISA with mAb 3F11 (lower graph).
To define the substrate specificity of gonococcal LOS sialyltransferase, N. gonorrhoeae F62 ΔIgtD was grown in media alone, or media that contained the CMP-activated derivatives of 7 nonulosonates (listed in Table 1), each at a concentration of 30 μM (20 μg/ml). Following incubation for 2 h at 37° C., bacteria were washed, lysed with protease K/LDS sample buffer and separated on 12% Bis-tris gels. Blots were probed with mAb 3F11, which binds to the terminal lactosamine residue of lacto-N-neotetraose (LNT); any extension beyond the terminal Gal (in this instance with a nonose) would abrogate 3F11 binding. […] Whole cell ELISA with mAb 3F11 confirmed results of western blotting (FIG. 1, lower graph).
Bacteria (F62 ΔIgtD) grown overnight on chocolate agar plates were suspended in gonococcal liquid media supplemented with IsoVitaleX (11) that contained specified concentrations of the CMP-nonulosonate. Bacteria were then incubated at 37° C. for the period specified in each experiment.
Gonococcal lysates treated with protease K (100 μg/ml) and NuPAGE® LDS Sample Buffer (4×) (Invitrogen) were separated on NuPAGE® 12% Bis-Tris (Invitrogen) gels using Novex® MES running buffer (Invitrogen) followed by sliver staining with the Bio-Rad Silver Stain Kit, or were transferred to an Immobilon PVDF membrane (Millipore). Membranes were blocked with PBS/1% milk and probed with tissue culture supernatants that contained mAb 3F11. mAb 3F11-reactive LOS bands were disclosed with anti-mouse IgM conjugated to alkaline phosphatase followed by the addition of BCIP®/NBT-Purple Liquid Substrate (Sigma).

The subject of assay [2] is N. gonorrhoeae F62 ΔIgtD. It counts as cell-based. As for the experimental part:
FIG. 2. […] N. gonorrhoeae F62 ΔIgtD was grown in media alone (no CMP-sialic acid added), or media that contained 20 μg/ml (˜30 μM) of each of the indicated CMP-nonulosonates. Resistance of bacteria to complement-dependent killing in the presence of 3.3%, 6.7% or 10% normal human serum (NHS) was measured in serum bactericidal assays.
FIG. 5. […] N. gonorrhoeae F62 ΔIgtD was suspended in media containing 20 μg/ml (˜30 μM) CMP-Neu5Ac. Following 15 min of incubation at 37° C., CMP-Neu5Ac9Az or CMP-Leg5Ac7Ac (at concentrations of 20, 2 or 0.2 μg/ml final) were added and bacteria were incubated for 2 h. Serum bactericidal assays were then performed using 3.3% (solid black bars) or 10% (hatched bars) NHS. Controls included bacteria in media that lacked any CMP-nonulosonate, or bacteria that were incubated in CMP-Neu5Ac only. Y-axis, % survival.
We next determined the effects of incorporation of the CMP salts of five structural analogues of Neu5Ac (Neu5Gc, Neu5Ac9Ac, Neu5Ac9Az, Neu5Gc8Me and Leg5Ac7Ac) on the ability of N. gonorrhoeae F62 ΔIgtD to resist complement-dependent killing by normal human serum at concentrations of 10, 6.7 or 3.3%. Bacteria were grown either in media alone, or media supplemented with 30 μM (˜20 μg/ml) of each of the CMP-nonulosonates.
The ability of two of the CMP-nonulosonates, CMP-Neu5Ac9Az and CMP-Leg5Ac7Ac, to counter the ability of CMP-Neu5Ac to enhance serum resistance of N. gonorrrhoeae was then examined. The analogues were added at concentrations of 20, 2 or 0.2 μg/ml to growth media 15 min after the addition of CMP-Neu5Ac (20 μg/ml) to F62 ΔIgtD.
Serum bactericidal assays were performed as described previously (11). Bacteria harvested from an overnight culture on chocolate agar plates were grown in liquid media containing the specified concentration of CMP-nonulosonate as specified for each experiment. Approximately 2000 CFU of F62 ΔIgtD were incubated with NHS (concentration specified for each experiment). The final reaction volumes were maintained at 150 μl. […]

Assay [3] relates to N. gonorrhoeae F62 ΔIgtD. Briefly: Flow cytometry for factor H binding to bacteria. It counts as cell-based. The protocol:
FIG. 3. Effects of LOS modification with various nonulosonate analogues on fH binding to N. gonorrhoeae. N. gonorrhoeae F62 ΔIgtD was grown in media alone, or media supplemented with 20 μg/ml (˜30 μM) of each of the indicated CMP-nonulosonates. Binding of bacteria to fH (10 μg/ml) was measured by flow cytometry using polyclonal goat anti-human fH. The control indicates reaction mixtures that lacked fH. Y-axis, median fluorescence of fH binding. The mean (SD) of 2 independent repeats is shown.
FIG. 7. […] A. N. gonorrhoeae F62 ΔIgtD was incubated in media containing CMP-Neu5Ac (20 μg/ml), followed […] by the addition of either CMP-Neu5Ac9Az or CMP-Leg5Ac7Ac (20, 2 or 0.2 μg/ml). Bacteria were grown for 2 h and fH binding detected by FACS using polyclonal goat anti-human fH. The Y-axis represents median fluorescence. The mean (SEM) of two independent observations is shown. B. Development of serum resistance lags behind fH binding when measured as a function of time of exposure of bacteria to CMP-Neu5Ac. CMP-Neu5Ac (20 μg/ml) was added to media containing F62 ΔIgtD and bacteria were taken at the time points indicated on the X-axis and assayed for fH binding by FACS with anti-fH mAb 90× (left Y-axis; median fluorescence (SEM)), or tested for its ability to resist killing by 10% NHS (right Y-axis; percent survival). The data represent 2-3 independent experiments. C. Representative histograms of a fH binding FACS experiment.
The addition of a terminal Neu5Ac residue to LNT-expressing LOS enhances binding of the alternative pathway inhibitor, factor H, which contributes to the ability of sialylated gonococci to resist killing by complement (7). fH binding to N. gonorrhoeae F62 ΔIgtD grown in the presence of each of the CMP-nonulosonates (20 μg/ml or 30 μM) was examined (FIG. 3). […] Reducing the CMP-nonulosonate concentrations in growth media to 2 μg/ml (3 μM) yielded similar fH binding results (FIG. 9B). Further, modification of LOS with Neu5Ac or Neu5Gc yielded similar amounts of fH binding over CMP-sialic acid concentrations ranging from 0.5 to 4 μg/ml, with near maximal fH binding observed even at the lowest concentration tested (FIG. 9C).
fH binding to bacteria was performed using flow cytometry as described previously (14). Briefly, bacteria (F62 ΔIgtD) were harvested from chocolate agar plates and grown in liquid media that contained the specified concentration of the CMP-nonulosonate as described above. Bacteria were then washed with Hanks Balanced Salt Solution (HBSS) containing 1 mM Ca^2+ and 1 mM Mg^2+ (HBSS^++) and incubated with fH purified from human plasma (Complement Technology, Inc.; concentration specified for each experiment). Bound fH was detected using either anti-fH mAb (Quidel, catalog no. A254 (mAb 90×)) or goat anti-human fH, followed by FITC conjugated anti-mouse IgG or anti-goat IgG, respectively (Sigma); both Abs had similar performance characteristics. All reaction mixtures were carried out in HBSS^++/1% BSA in a final volume of 50 μl. Flow cytometry was performed using a FACSCalibur instrument (Becton Dickinson) and data were analyzed using FlowJo (version 7.2.5; Tree Star, Inc.).
For orientation: In flow cytometry, cells or beads pass a laser one at a time.

“Also recorded” adds a separate entry of the source.

T1 sequence (P72074 whole entry): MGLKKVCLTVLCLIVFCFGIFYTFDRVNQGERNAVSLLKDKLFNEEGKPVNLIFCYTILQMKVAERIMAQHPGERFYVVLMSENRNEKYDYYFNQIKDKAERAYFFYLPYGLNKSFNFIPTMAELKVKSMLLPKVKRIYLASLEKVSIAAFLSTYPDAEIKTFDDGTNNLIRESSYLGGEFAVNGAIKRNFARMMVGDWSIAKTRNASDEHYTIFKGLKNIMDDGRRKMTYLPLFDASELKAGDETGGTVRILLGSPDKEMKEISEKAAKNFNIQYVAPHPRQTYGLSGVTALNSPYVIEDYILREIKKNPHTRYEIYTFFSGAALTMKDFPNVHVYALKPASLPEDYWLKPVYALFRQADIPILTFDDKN

For the molecule `CC(=O)N[C@H]([C@@H]1O[C@](OP(=O)(O)OC[C@H]2O[C@@H](n3ccc(N)nc3=O)[C@H](O)[C@@H]2O)(C(=O)O)C[C@H](O)[C@@H]1NC(C)=O)[C@H](C)O` [CMP-Pse5Ac7Ac, reference compound], the “mAb 3F11 binding / incorporation of nonulosonate onto LNT LOS (use as Lst substrate)” value in assay [1] is recorded as “not incorporated; also recorded: not utilized”. Further, in the assay with N. gonorrhoeae F62 ΔIgtD [2] (all serum concentrations tested (10, 6.7, 3.3%), 30 μM), the “bacterial survival / serum resistance” value is reported as “did not affect serum resistance”.

Regarding `Nc1ccn([C@@H]2O[C@H](COP(=O)(O)O[C@@]3(C(=O)O)C[C@H](O)[C@@H](NC(=O)CO)[C@H]([C@H](O)[C@H](O)CO)O3)[C@@H](O)[C@H]2O)c(=O)n1` [CMP-Neu5Gc, CMP-5-hydroxyacetamido-3,5-dideoxy-D-glycero-D-galacto-nonulosonic acid, reference compound], the “mAb 3F11 binding / incorporation of nonulosonate onto LNT LOS (use as Lst substrate)” value in assay [1] is “decreased binding of mAb 3F11”. For the same molecule, the fH binding result was “Maximal” in the assay with N. gonorrhoeae F62 ΔIgtD [3] (CMP-nonulosonate 20 μg/ml or 30 μM, vs unsialylated F62 ΔIgtD); “near maximal” in the assay on N. gonorrhoeae F62 ΔIgtD [3] (CMP-sialic acid 0.5 to 4 μg/ml, lowest concentration tested); “high” with N. gonorrhoeae F62 ΔIgtD [3] (summary Table 1). Also, the “resistance to 10% serum” value in the assay with N. gonorrhoeae F62 ΔIgtD [2] (CMP-nonulosonate 3 μM (~2 μg/ml), 10% serum) is “conferred resistance”. For the same molecule, the Serum resistance entry in the assay on N. gonorrhoeae F62 ΔIgtD [2] (summary Table 1) is “high (>100% survival in 10% serum)”.
